Measurements: ChEMBL document CHEMBL4417631, “Oral peptide inhibitors of interleukin-23 receptor and their use to treat inflammatory bowel diseases” (2017)
*1 amine or outer side, *2 acyl side, *3 side chain or, on linkers, in order; H or OH if unused. Where a SMILES comes first, the peptide text is derived from it. Bridges are numbered along the chain shown (N, C = ends). [ ]: non-standard residue; d: D form. Abu(4-yl) = O=C([C@H](CC[*:3])N[*:1])[*:2]; 2Nal = N[C@@H](Cc1ccc2ccccc2c1)C(=O)O; AEF = NCCOc1ccc(C[C@H](N)C(=O)O)cc1; αMeL = CC(C)C[C@](C)(N)C(=O)O

How the values were obtained:
[1] = Inhibition of interleukin-23 binding to rat interleukin-23 receptor incubated for 2 hrs by competitive binding ELISA
Interleukin-23 receptor [2] = biological target: T1, Interleukin-23 receptor (Homo sapiens, UniProt Q5VWK5); test: Inhibition of interleukin-23 binding to human interleukin-23 receptor incubated for 2 hrs by competitive binding ELISA
T1 sequence (Q5VWK5 whole entry): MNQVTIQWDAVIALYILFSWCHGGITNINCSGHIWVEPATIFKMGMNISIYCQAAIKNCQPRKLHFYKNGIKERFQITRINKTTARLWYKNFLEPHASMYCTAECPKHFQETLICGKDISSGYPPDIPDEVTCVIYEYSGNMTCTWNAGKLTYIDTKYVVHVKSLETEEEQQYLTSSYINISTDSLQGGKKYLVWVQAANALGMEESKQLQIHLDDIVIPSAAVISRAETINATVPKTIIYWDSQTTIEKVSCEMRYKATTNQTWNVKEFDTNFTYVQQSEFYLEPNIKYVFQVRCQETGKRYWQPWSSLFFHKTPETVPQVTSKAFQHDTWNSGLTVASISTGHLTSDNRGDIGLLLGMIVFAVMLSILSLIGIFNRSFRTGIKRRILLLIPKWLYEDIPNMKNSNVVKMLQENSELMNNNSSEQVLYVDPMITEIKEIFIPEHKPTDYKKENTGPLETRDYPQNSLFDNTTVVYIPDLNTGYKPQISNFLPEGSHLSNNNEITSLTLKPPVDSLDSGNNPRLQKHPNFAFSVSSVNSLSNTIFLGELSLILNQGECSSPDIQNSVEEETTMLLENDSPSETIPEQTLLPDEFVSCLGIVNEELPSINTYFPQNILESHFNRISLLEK

Interleukin-23 receptor [3] = biological target: T1, Interleukin-23 receptor; test: Inhibition of interleukin-23 receptor in human DB cells assessed as reduction in IL-23-stimulated STAT3 phosphorylation incubated for 30 mins by HTRF assay; assay type: cell-based
[4] = Half life in simulated gastric fluid at 20 uM by LC-MS/MS analysis; assay type: ADME
[5] = Half life in simulated intestinal fluid at 20 uM by LC-MS/MS analysis; assay type: ADME

SMILES	IC50 [1] [nM]	IC50 (Interleukin-23 receptor [2]) [nM]	IC50 (Interleukin-23 receptor [3]) [nM]	half-life at 20 µM [4] [h]	half-life at 20 µM [5] [h]
CC(=O)NCCCC[C@H](NC(=O)[C@](C)(CC(C)C)NC(=O)[C@H](Cc1ccc2ccccc2c1)NC(=O)[C@H](Cc1ccc(OCCN)cc1)NC(=O)[C@@H]1CSCC[C@H](NC(C)=O)C(=O)N[C@@H](CCC(N)=O)C(=O)N[C@@H]([C@@H](C)O)C(=O)N[C@@H](Cc2c[nH]c3ccccc23)C(=O)N[C@@H](CCC(N)=O)C(=O)N1)C(=O)N[C@@H](CC(N)=O)C(=O)N[C@@H](CC(N)=O)C(N)=O (Ac-[Abu(4-yl)]QTWQC[AEF][2Nal][αMeL]K(Ac)NN-NH2; thioether 1-6)	< 10	< 10	< 10	< 1	2 to 3
CC(=O)N[C@H](C(=O)N[C@@H](CCC(N)=O)C(=O)N[C@H](C(=O)N[C@@H](Cc1c[nH]c2ccccc12)C(=O)N[C@@H](CCC(N)=O)C(=O)N[C@H](C(=O)N[C@@H](Cc1ccc(OCCN)cc1)C(=O)N[C@@H](Cc1ccc2ccccc2c1)C(=O)N[C@@](C)(CCCCN)C(=O)N[C@@H](CCC(=O)O)C(=O)N[C@@H](CC(N)=O)C(=O)N[C@@H](C)C(N)=O)C(C)(C)S)[C@@H](C)O)C(C)(C)S	25 to 100	< 10	< 10	> 6	> 6
CC(=O)NCCCC[C@H](NC(=O)[C@](C)(CCCCN)NC(=O)[C@H](Cc1ccc2ccccc2c1)NC(=O)[C@H](Cc1ccc(C(N)=O)cc1)NC(=O)[C@@H]1CSCC[C@H](NC(C)=O)C(=O)N[C@@H](CCC(N)=O)C(=O)N[C@@H]([C@@H](C)O)C(=O)N[C@@H](Cc2c[nH]c3ccccc23)C(=O)N[C@@H](CCC(N)=O)C(=O)N1)C(=O)N[C@@H](CC(N)=O)C(=O)NCC(N)=O	25 to 100	10 to 25	< 10	< 1	1 to 3
COc1ccc(C[C@H](NC(=O)[C@@H](NC(=O)[C@H](CCC(N)=O)NC(=O)[C@H](Cc2c[nH]c3ccccc23)NC(=O)[C@@H](NC(=O)[C@H](CCC(N)=O)NC(=O)[C@@H](NC(=O)[C@@H]2CCC(=O)N2)C(C)(C)S)[C@@H](C)O)C(C)(C)S)C(=O)N[C@@H](Cc2ccc3ccccc3c2)C(=O)N[C@@](C)(CCCCN)C(=O)N[C@@H](CCCCNC(C)=O)C(=O)N[C@@H](CC(N)=O)C(=O)NCC(N)=O)cc1	25 to 100	25 to 100	< 10	3 to 6	> 6
COc1ccc(C[C@H](NC(=O)[C@@H](NC(=O)[C@H](CCC(N)=O)NC(=O)[C@H](Cc2c[nH]c3ccccc23)NC(=O)[C@@H](NC(=O)[C@H](CCC(N)=O)NC(=O)[C@@H](NC(C)=O)C(C)(C)S)[C@@H](C)O)C(C)(C)S)C(=O)N[C@@H](Cc2ccc3ccccc3c2)C(=O)N[C@@](C)(CCCCN)C(=O)N[C@@H](CCCCNC(C)=O)C(=O)N[C@@H](CC(N)=O)C(=O)NCC(N)=O)cc1	25 to 100	25 to 100	< 10	> 6	> 6
COc1ccc(C[C@H](NC(=O)[C@@H]2CSCC[C@H](NC(C)=O)C(=O)N[C@@H](CCC(N)=O)C(=O)N[C@@H]([C@@H](C)O)C(=O)N[C@@H](Cc3c[nH]c4ccccc34)C(=O)N[C@@H](CCC(N)=O)C(=O)N2)C(=O)N[C@@H](Cc2c[nH]c3ccccc23)C(=O)N[C@@](C)(CCCCN)C(=O)N[C@@H](CCC(=O)O)C(=O)N[C@@H](CC(N)=O)C(=O)NCC(N)=O)cc1	25 to 100	10 to 25	10 to 25	< 1	> 6
COc1ccc(C[C@H](NC(=O)[C@H]2NC(=O)[C@H](CCC(N)=O)NC(=O)[C@H](Cc3c[nH]c4ccccc34)NC(=O)[C@H]([C@@H](C)O)NC(=O)[C@H](CCC(N)=O)NC(=O)[C@@H](NC(C)=O)CCSC2(C)C)C(=O)N[C@@H](Cc2ccc3ccccc3c2)C(=O)N[C@@](C)(CCCCN)C(=O)N[C@@H](CCC(=O)O)C(=O)N[C@@H](CC(N)=O)C(=O)NCC(N)=O)cc1	100 to 1000	100 to 1000	25 to 100	2 to 3	3 to 6
